Read-outs that look alike come from different tables or passages of the source. Starred links: 1 amine or outer side, 2 acyl side, 3 side chain; linkers in the order of their positions; H or OH if unused. Non-standard residues stand in square brackets, D forms with d. Residues, ends and D or L forms follow the SMILES beside them. X7 = NC(=O)CC[C@@H](CN[*:1])C(=O)[*:2]

What all share (assay type): cell-based
One assay relates to PTHR1 and PTHR2. The assay can be described thus: Tolerance pattern of β residues for PTHR1 and PTHR2 activation. More on the design: key: “*” denotes potent PTHR1-selective agonism; “#” denotes potent PTHR2-selective agonism; “*#” denotes potent agonism of both PTHR1 and PTHR2. The following applies: PTHR1 vs PTHR2 agonism. The source says:
Enhanced selectivity via double α→β replacement.

Another assay deals with PTHR2 (Homo sapiens, UniProt P49190). The experiment in a line: PTHR2 activation, cAMP production (GloSensor) in HEK293 cells. More on the design: expressed in transfected cells. The following applies: for EC50: HEK-293 cells, GloSensor cAMP, read-out: EC50 (nM) of PTHR2 Activation. An excerpt:
The assays employ HEK-293 cells that have been engineered to express the appropriate receptor. GloSensor-based detection of cAMP provides a read-out of receptor activation. […] (Carter, P. H. et al. Actions of the Small Molecule Ligands SW106 and AH-3960 on the Type-1 Parathyroid Hormone Receptor. Molecular Endocrinology 29, 307-321 (2015).)
FIGS. 10A and 10B depict dose-response curves of PTHR1 activation (FIG. 10A) and PTHR2 activation (FIG. 10B) in HEK293 cells stably expressing PTHR1 or PTHR2. For PTHR1 activation and all the binding data, data represent mean±s.e.m from three independent measurements; For PTHR2 activation, data represent mean±s.e.m from four independent measurements. Curves were fit to the data using a four-parameter sigmoidal dose-response equation.

Another assay concerns the target T1, PTHR1 (Homo sapiens, UniProt Q03431).
T1 sequence (Q03431 27-593): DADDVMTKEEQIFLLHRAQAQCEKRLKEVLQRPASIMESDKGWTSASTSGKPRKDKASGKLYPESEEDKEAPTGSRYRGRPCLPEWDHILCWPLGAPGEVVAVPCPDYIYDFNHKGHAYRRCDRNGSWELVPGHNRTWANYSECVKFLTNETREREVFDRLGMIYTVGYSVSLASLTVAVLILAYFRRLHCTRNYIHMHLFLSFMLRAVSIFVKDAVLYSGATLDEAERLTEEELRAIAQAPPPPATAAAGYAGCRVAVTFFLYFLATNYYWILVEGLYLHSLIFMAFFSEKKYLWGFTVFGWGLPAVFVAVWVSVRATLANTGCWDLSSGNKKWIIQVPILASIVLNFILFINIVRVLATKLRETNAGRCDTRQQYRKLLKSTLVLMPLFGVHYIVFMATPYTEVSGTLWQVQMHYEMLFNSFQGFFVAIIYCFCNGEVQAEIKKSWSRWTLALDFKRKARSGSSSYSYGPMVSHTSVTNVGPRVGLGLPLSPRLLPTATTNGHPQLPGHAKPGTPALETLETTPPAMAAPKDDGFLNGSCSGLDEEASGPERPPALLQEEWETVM
The assay can be described thus: PTHR1 activation, cAMP production (GloSensor) in HEK293 cells. More on the design: expressed in transfected cells. The settings on record: for PTHR1 Activation: Derivative EC50/PTH EC50: normalized to EC50 of PTH(1-34)-NH2 ([…]), cAMP production. The source says: The assays employ HEK-293 cells that have been engineered to express the appropriate receptor. GloSensor-based detection of cAMP provides a read-out of receptor activation.
For PTHR1 activation and all the binding data, data represent mean±s.e.m from three independent measurements; For PTHR2 activation, data represent mean±s.e.m from four independent measurements. Curves were fit to the data using a four-parameter sigmoidal dose-response equation.
For cAMP dose-response assays, monolayers of confluent HEK 293 cells were pre-incubated with buffer containing d-luciferin (0.5 mM) in 96 well plates at room temperature until a stable baseline level of luminescence was established (30 min). Varying concentrations of agonist were then added, and the time course of luminescence response was recorded using a Perkin Elmer plate reader following α/β-peptide addition.

Setting [1] is: HEK-293 cells, GloSensor cAMP, read-out: EC50 (nM) of PTHR1 Activation.
The mark [2] stands for this setting: Table 8, hPTHR1, read-out: PTHR1 EC50.

PTHR2, sequence (P49190 25-550): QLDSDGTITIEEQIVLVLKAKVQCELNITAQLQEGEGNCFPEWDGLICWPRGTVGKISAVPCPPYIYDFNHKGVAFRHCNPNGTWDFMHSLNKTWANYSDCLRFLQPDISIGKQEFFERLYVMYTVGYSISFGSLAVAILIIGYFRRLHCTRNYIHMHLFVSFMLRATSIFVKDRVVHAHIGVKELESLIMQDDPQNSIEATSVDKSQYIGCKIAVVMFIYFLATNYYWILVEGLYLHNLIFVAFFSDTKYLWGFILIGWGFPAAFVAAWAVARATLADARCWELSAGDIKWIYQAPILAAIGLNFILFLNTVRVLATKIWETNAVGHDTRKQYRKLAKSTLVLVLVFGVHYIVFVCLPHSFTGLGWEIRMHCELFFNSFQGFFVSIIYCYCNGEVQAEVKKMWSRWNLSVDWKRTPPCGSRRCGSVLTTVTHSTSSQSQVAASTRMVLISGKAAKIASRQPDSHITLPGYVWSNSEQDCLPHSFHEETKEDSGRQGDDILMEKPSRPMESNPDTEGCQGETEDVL

Take `CC[C@H](C)[C@H](NC(=O)[C@H](CCC(=O)O)NC(=O)[C@H](CO)NC(=O)[C@@H](NC(=O)[C@@H](N)CO)C(C)C)C(=O)N[C@@H](CCC(N)=O)C(=O)NC[C@@H](CC(C)C)C(=O)N[C@@H](CCSC)C(=O)N[C@@H](Cc1c[nH]cn1)C(=O)N[C@@H](CC(N)=O)C(=O)N[C@@H](CC(C)C)C(=O)NCC(=O)N[C@@H](CCCCN)C(=O)N[C@@H](Cc1c[nH]cn1)C(=O)N[C@@H](CC(C)C)C(=O)N[C@@H](CC(N)=O)C(=O)N[C@@H](CO)C(=O)N[C@@H](CCSC)C(=O)N[C@@H](CCC(=O)O)C(=O)N[C@@H](CCCNC(=N)N)C(=O)N[C@H](C(=O)N[C@@H](CCC(=O)O)C(=O)N[C@@H](Cc1c[nH]c2ccccc12)C(=O)N[C@@H](CC(C)C)C(=O)N[C@@H](CCCNC(=N)N)C(=O)N[C@@H](CCCCN)C(=O)N[C@@H](CCCCN)C(=O)N[C@@H](CC(C)C)C(=O)N[C@@H](CCC(N)=O)C(=O)N[C@@H](CC(=O)O)C(=O)N[C@H](C(=O)N[C@@H](Cc1c[nH]cn1)C(=O)N[C@@H](CC(N)=O)C(=O)N[C@@H](Cc1ccccc1)C(N)=O)C(C)C)C(C)C` [SEQ. ID. NO: 28]: the “Tolerance Pattern of β AA” value with PTHR1 and PTHR2 is “*”. In addition, the EC50 amounted to 41.4 ± 5.18 nM on PTHR2 and 0.36 ± 0.11 nM at PTHR1 (setting [1]). Further, the “PTHR2 Activation: Derivative EC50/PTH EC50” value on PTHR2 (normalized to EC50 of PTH(1-34)-NH2 ([…] printed), cAMP production) was determined as 47.64. Moreover, the “PTHR1 Activation: Derivative EC50/PTH EC50” value on PTHR1 worked out at 0.95.
As for `CC[C@H](C)[C@H](NC(=O)[C@H](CCC(=O)O)NC(=O)[C@H](CO)NC(=O)[C@@H](NC(=O)[C@@H](N)CO)C(C)C)C(=O)NC[C@H](CCC(N)=O)C(=O)N[C@@H](CC(C)C)C(=O)N[C@@H](CCSC)C(=O)N[C@@H](Cc1c[nH]cn1)C(=O)N[C@@H](CC(N)=O)C(=O)N[C@@H](CC(C)C)C(=O)NCC(=O)N[C@@H](CCCCN)C(=O)N[C@@H](Cc1c[nH]cn1)C(=O)N[C@@H](CC(C)C)C(=O)N[C@@H](CC(N)=O)C(=O)N[C@@H](CO)C(=O)N[C@@H](CCSC)C(=O)N[C@@H](CCC(=O)O)C(=O)N[C@@H](CCCNC(=N)N)C(=O)N[C@H](C(=O)N[C@@H](CCC(=O)O)C(=O)N[C@@H](Cc1c[nH]c2ccccc12)C(=O)N[C@@H](CC(C)C)C(=O)N[C@@H](CCCNC(=N)N)C(=O)N[C@@H](CCCCN)C(=O)N[C@@H](CCCCN)C(=O)N[C@@H](CC(C)C)C(=O)N[C@@H](CCC(N)=O)C(=O)N[C@@H](CC(=O)O)C(=O)N[C@H](C(=O)N[C@@H](Cc1c[nH]cn1)C(=O)N[C@@H](CC(N)=O)C(=O)N[C@@H](Cc1ccccc1)C(N)=O)C(C)C)C(C)C` [SEQ. ID. NO: 35] (H-SVSEI[X7]LMHNLGKHLNSMERVEWLRKKLQDVHNF-NH2; N-terminus assumed), in the assay with PTHR1 and PTHR2, the “Tolerance Pattern of β AA” value is reported as “*#”. The EC50 is 0.42 ± 0.07 nM on PTHR1 (setting [1]) and 1.96 ± 0.45 nM on PTHR1 (setting [2]). Moreover, the “PTHR1 Activation: Derivative EC50/PTH EC50” value on PTHR1 was 1.11.
For `CC[C@H](C)[C@H](NC(=O)[C@H](CCC(=O)O)NC(=O)[C@H](CO)NC(=O)[C@@H](NC(=O)[C@@H](N)CO)C(C)C)C(=O)N[C@@H](CCC(N)=O)C(=O)NC[C@H](CC(C)C)C(=O)N[C@@H](CCSC)C(=O)N[C@@H](Cc1c[nH]cn1)C(=O)N[C@@H](CC(N)=O)C(=O)N[C@@H](CC(C)C)C(=O)NCC(=O)N[C@@H](CCCCN)C(=O)N[C@@H](Cc1c[nH]cn1)C(=O)N[C@@H](CC(C)C)C(=O)N[C@@H](CC(N)=O)C(=O)N[C@@H](CO)C(=O)N[C@@H](CCSC)C(=O)N[C@@H](CCC(=O)O)C(=O)N[C@@H](CCCNC(=N)N)C(=O)N[C@H](C(=O)N[C@@H](CCC(=O)O)C(=O)N[C@@H](Cc1c[nH]c2ccccc12)C(=O)N[C@@H](CC(C)C)C(=O)N[C@@H](CCCNC(=N)N)C(=O)N[C@@H](CCCCN)C(=O)N[C@@H](CCCCN)C(=O)N[C@@H](CC(C)C)C(=O)N[C@@H](CCC(N)=O)C(=O)N[C@@H](CC(=O)O)C(=O)N[C@H](C(=O)N[C@@H](Cc1c[nH]cn1)C(=O)N[C@@H](CC(N)=O)C(=O)N[C@@H](Cc1ccccc1)C(N)=O)C(C)C)C(C)C` [SEQ. ID. NO: 36] the same measures were “*#”, 0.47 ± 0.14 nM, 0.24 ± 0.01 nM and 1.24.
Consider `CC[C@H](C)[C@H](NC(=O)[C@H](CCC(=O)O)NC(=O)[C@H](CO)NC(=O)[C@@H](NC(=O)C[C@@H](N)CO)C(C)C)C(=O)N[C@@H](CCC(N)=O)C(=O)N[C@@H](CC(C)C)C(=O)N[C@@H](CCSC)C(=O)N[C@@H](Cc1c[nH]cn1)C(=O)N[C@@H](CC(N)=O)C(=O)N[C@@H](CC(C)C)C(=O)NCC(=O)N[C@@H](CCCCN)C(=O)N[C@@H](Cc1c[nH]cn1)C(=O)N[C@@H](CC(C)C)C(=O)N[C@@H](CC(N)=O)C(=O)N[C@@H](CO)C(=O)N[C@@H](CCSC)C(=O)N[C@@H](CCC(=O)O)C(=O)N[C@@H](CCCNC(=N)N)C(=O)N[C@H](C(=O)N[C@@H](CCC(=O)O)C(=O)N[C@@H](Cc1c[nH]c2ccccc12)C(=O)N[C@@H](CC(C)C)C(=O)N[C@@H](CCCNC(=N)N)C(=O)N[C@@H](CCCCN)C(=O)N[C@@H](CCCCN)C(=O)N[C@@H](CC(C)C)C(=O)N[C@@H](CCC(N)=O)C(=O)N[C@@H](CC(=O)O)C(=O)N[C@H](C(=O)N[C@@H](Cc1c[nH]cn1)C(=O)N[C@@H](CC(N)=O)C(=O)N[C@@H](Cc1ccccc1)C(N)=O)C(C)C)C(C)C` [SEQ. ID. NO: 38], for which the “Tolerance Pattern of β AA” value in the assay on PTHR1 and PTHR2 was “*#”. Further, the EC50 at PTHR1 (setting [1]) turned out to be 0.27 ± 0.06 nM.
Take `CC[C@H](C)[C@H](NC(=O)[C@H](CCC(=O)O)NC(=O)[C@H](CO)NC(=O)[C@@H](NC(=O)[C@@H](N)CO)C(C)C)C(=O)N[C@@H](CCC(N)=O)CC(=O)N[C@@H](CC(C)C)C(=O)N[C@@H](CCSC)C(=O)N[C@@H](Cc1c[nH]cn1)C(=O)N[C@@H](CC(N)=O)C(=O)N[C@@H](CC(C)C)C(=O)NCC(=O)N[C@@H](CCCCN)C(=O)N[C@@H](Cc1c[nH]cn1)C(=O)N[C@@H](CC(C)C)C(=O)N[C@@H](CC(N)=O)C(=O)N[C@@H](CO)C(=O)N[C@@H](CCSC)C(=O)N[C@@H](CCC(=O)O)C(=O)N[C@@H](CCCNC(=N)N)C(=O)N[C@H](C(=O)N[C@@H](CCC(=O)O)C(=O)N[C@@H](Cc1c[nH]c2ccccc12)C(=O)N[C@@H](CC(C)C)C(=O)N[C@@H](CCCNC(=N)N)C(=O)N[C@@H](CCCCN)C(=O)N[C@@H](CCCCN)C(=O)N[C@@H](CC(C)C)C(=O)N[C@@H](CCC(N)=O)C(=O)N[C@@H](CC(=O)O)C(=O)N[C@H](C(=O)N[C@@H](Cc1c[nH]cn1)C(=O)N[C@@H](CC(N)=O)C(=O)N[C@@H](Cc1ccccc1)C(N)=O)C(C)C)C(C)C` [SEQ. ID. NO: 43]: the “Tolerance Pattern of β AA” value with PTHR1 and PTHR2 was “#”. Moreover, the EC50 on PTHR1 (setting [1]) came to 8.45 ± 1.35 nM. Further, on PTHR1, the “PTHR1 Activation: Derivative EC50/PTH EC50” value is 22.24.
As for `CC[C@H](C)[C@H](NC(=O)[C@H](CCC(=O)O)NC(=O)[C@H](CO)NC(=O)[C@@H](NC(=O)[C@@H](N)CO)C(C)C)C(=O)N[C@@H](CCC(N)=O)C(=O)N[C@H](CC(=O)N[C@@H](CCSC)C(=O)N[C@@H](Cc1c[nH]cn1)C(=O)N[C@@H](CC(N)=O)C(=O)N[C@@H](CC(C)C)C(=O)NCC(=O)N[C@@H](CCCCN)C(=O)N[C@@H](Cc1c[nH]cn1)C(=O)N[C@@H](CC(C)C)C(=O)N[C@@H](CC(N)=O)C(=O)N[C@@H](CO)C(=O)N[C@@H](CCSC)C(=O)N[C@@H](CCC(=O)O)C(=O)N[C@@H](CCCNC(=N)N)C(=O)N[C@H](C(=O)N[C@@H](CCC(=O)O)C(=O)N[C@@H](Cc1c[nH]c2ccccc12)C(=O)N[C@@H](CC(C)C)C(=O)N[C@@H](CCCNC(=N)N)C(=O)N[C@@H](CCCCN)C(=O)N[C@@H](CCCCN)C(=O)N[C@@H](CC(C)C)C(=O)N[C@@H](CCC(N)=O)C(=O)N[C@@H](CC(=O)O)C(=O)N[C@H](C(=O)N[C@@H](Cc1c[nH]cn1)C(=O)N[C@@H](CC(N)=O)C(=O)N[C@@H](Cc1ccccc1)C(N)=O)C(C)C)C(C)C)CC(C)C` [SEQ. ID. NO: 44], the “Tolerance Pattern of β AA” value in the assay on PTHR1 and PTHR2 is recorded as “*”. In addition, the EC50 at PTHR2 stood at 35 ± 2.84 nM.

The values are drawn from patent US11780901B2, “Analogues of parathyroid hormone (1-34) that function as agonists of the parathyroid hormone receptor-1 and display modified activity profiles” (Wisconsin Alumni Research Foundation, priority 2013, dated 2023).
